Results as given in article PMC6277767, “Broad and Region-Specific Impacts of the Synthetic Cannabinoid CP 55,940 in Adolescent and Adult Female Mouse Brains” (Frontiers in Molecular Neuroscience, 2018).

Tested on: CD1 female mouse brain lipidome
Experiment: Brain-region lipid levels (HPLC/MS/MS lipidomics) 2 h after single i.p. 3 mg/kg CP 55,940 vs vehicle
Type: in vivo
Design: N-arachidonoyl phenylalanine level, Mean / N-stearoyl tryptophan level, Mean / N-stearoyl proline level, Mean / N-stearoyl leucine level, Mean / N-stearoyl phenylalanine level, Mean / N-stearoyl serine level, Mean / N-stearoyl methionine level, Mean: unit: moles per gram
Description: The Bloomington Institutional Animal Care and Use Committee of Indiana University reviewed and approved the animal procedures. Female mice from the CD1 strain were utilized to match our study examining THC’s effects on the brain lipidome ([Leishman et al., 2018]). Mice were given a single i.p. injection of either 3 mg/kg CP or 1:1:18 cremophor:ethanol:saline vehicle (please refer to the section “3 mg/kg CP Is Relevant for Synthetic Cannabinoid Abuse and Has Stronger Effects on the Female Mouse Brain Lipidome During Adolescence” for a justification of dose and use of female mice). Three different age groups were given injections: PND 35 and PND 50 adolescents, and adult mice (PND 113). At least eight mice in each age group received CP and at least eight received vehicle. Matching the THC study time course ([Leishman et al., 2018]), mice were sacrificed via rapid decapitation 2 h after injection. Brains were immediately removed and flash-frozen in liquid nitrogen, and then stored at -80°C until dissections were performed. Brains were dissected on an ice-cold dissection plate into the following regions: STR, HIPP, CER, THAL, CTX, HYP, MID, and STEM. These abbreviations for these brain areas will be used exclusively when discussing the results generated by these specific dissections. Each dissected area was immediately placed in liquid nitrogen and then stored at -80°C until used for lipid extraction.
Tissue extracts were performed as previously described ([Bradshaw et al., 2006]; [Stuart et al., 2013]; [Raboune et al., 2014]; [Leishman et al., 2016a],[b], [2017], [2018]). First, samples were shock frozen in liquid nitrogen, weighed, and transferred to a centrifuge tube. The mass of the largest sample was multiplied by 50 to determine how many milliliters of HPLC-grade methanol (Fisher, Fair Lawn, NJ, United States) to add. Then, samples were spiked with 500 pmol deuterium-labeled NAGly (d8NAGly; Cayman Chemical, Ann Arbor, MI, United States). Samples were placed on ice in darkness for 2 h then individually homogenized and centrifuged at 19,000 × g for 20 min at 20°C. Supernatants were diluted with HPLC water (purified in house) to make a solution of 75% water, 25% supernatant. Lipids were partially purified on C18 solid phase extraction columns (Agilent, Palo Alto, CA, United States). A series of four elutions with 1.5 mL of 60%, 75%, 85%, and 100% methanol were collected ([Stuart et al., 2013]; [Leishman et al., 2016a],[b], [2018]).
As previously described ([Bradshaw et al., 2006]; [Tan et al., 2006]; [Smoum et al., 2010]; [Stuart et al., 2013]; [Tortoriello et al., 2013]; [Raboune et al., 2014]; [Leishman et al., 2016a],[b], [2017], [2018]), samples were analyzed using an Applied Biosystems API 3000 triple quadrupole mass spectrometer with electrospray ionization (Foster City, CA, United States). Using an Agilent XDB-C18 reversed phase analytical column and optimized mobile phase gradients, 20 μL from each elution were chromatographed. Two Shimadzu 10ADvp pumps (Columbia, MD, United States) provided the pressure for gradient elution. Mobile phase A: 20% methanol, 80% water (v/v) and 1 mM ammonium acetate (Sigma, St. Louis, MO, United States). Mobile phase B: 100% methanol, 1 mM ammonium acetate. Every method run began with 0% mobile phase B, reached 100% mobile phase B flowing at 0.2 mL/min, and gradually returned to 0% mobile phase B.
This screening library will be referred to as the lipidome when discussing data from this study. HPLC/MS/MS data were analyzed using Analyst software (Applied Biosystems) ([Bradshaw et al., 2006]; [Tan et al., 2006]; [Stuart et al., 2013]; [Tortoriello et al., 2013]; [Raboune et al., 2014]; [Leishman et al., 2016a],[b], [2017], [2018]). Chromatograms (Supplementary Figure 3) were generated by determining the retention time of analytes from the analytical column with a [M-1] or [M+1] parent peak and a fragmentation peak corresponding to the programmed values. […]

[1] = adult female mice, brainstem, 3mg/kg CP 55,940
[2] = adult hypothalamus, 3 mg/kg CP 55,940

CCCCCCC(C)(C)c1ccc([C@@H]2C[C@H](O)CC[C@H]2CCCO)c(O)c1 [CP 55,940]
6-ketoPGF1α level, Mean [1]: 2.07E-11 | Arachidonic acid level, Mean [1]: 4.08E-10 | Linoleic acid level, Mean [1]: 4.56E-10 | N- stearoyl valine level, Mean [1]: 2.21E-14 | N-arachidonoyl proline level, Mean [1]: BDL | N-arachidonoyl serine level, Mean [1]: PISSR | N-arachidonoyl taurine level, Mean [1]: 2.62E-11 | N-arachidonoyl tryptophan level, Mean [1]: BDL | N-arachidonoyl tyrosine level, Mean [1]: 6.33E-13 | N-docosahexaenoyl proline level, Mean [1]: BDL | N-docosahexaenoyl serine level, Mean [1]: PISSR | N-docosahexaenoyl tryptophan level, Mean [1]: BDL | N-docosahexaenoyl tyrosine level, Mean [1]: 5.03E-13 | N-docosahexaenoyl valine level, Mean [1]: BDL | N-linoleoyl proline level, Mean [1]: BDL | N-linoleoyl serine level, Mean [1]: 1.98E-11 | N-linoleoyl tryptophan level, Mean [1]: BDL | N-linoleoyl tyrosine level, Mean [1]: PISSR | N-linoleoyl valine level, Mean [1]: PISSR | N-nervonoyl valine level, Mean [1]: BDL | N-oleoyl proline level, Mean [1]: BDL | N-oleoyl serine level, Mean [1]: 1.03E-10 | N-oleoyl tryptophan level, Mean [1]: BDL | N-oleoyl tyrosine level, Mean [1]: 5.06E-13 | N-oleoyl valine level, Mean [1]: 1.48E-14 | N-palmitoyl proline level, Mean [1]: BDL | N-palmitoyl serine level, Mean [1]: 1.08E-11 | N-palmitoyl tryptophan level, Mean [1]: BDL | N-palmitoyl tyrosine level, Mean [1]: 7.4E-13 | N-palmitoyl valine level, Mean [1]: 1.28E-13 | N-stearoyl proline level, Mean [1]: BDL | N-stearoyl serine level, Mean [1]: 1.31E-11 | N-stearoyl tryptophan level, Mean [1]: BDL | Oleic acid level, Mean [1]: 4.28E-10 | PGE2 level, Mean [1]: 1.64E-10 | PhosphoLEA level, Mean [1]: 2.15E-12 | 2-arachidonoyl glycerol level, Mean [2]: 2.11E-09 | 2-linoleoyl glycerol level, Mean [2]: 1.7E-10 | 2-oleoyl glycerol level, Mean [2]: 1.71E-09 | 2-palmitoyl glycerol level, Mean [2]: 1.78E-10 | 6-ketoPGF1α level, Mean [2]: 2.15E-11 | 11-OH-THC level, Mean [2]: BDL | 11-nor-9-carboxyTHC level, Mean [2]: BDL | Arachidonic acid level, Mean [2]: 6.14E-10 | Cannabidiol level, Mean [2]: BDL | Linoleic acid level, Mean [2]: 1.2E-10 | N-arachidonoyl GABA level, Mean [2]: 2.05E-11 | N-arachidonoyl dopamine level, Mean [2]: BDL | N-arachidonoyl ethanolamine level, Mean [2]: 6.61E-12 | N-arachidonoyl glycine level, Mean [2]: 2.96E-13 | N-arachidonoyl methionine level, Mean [2]: BDL | N-arachidonoyl phenylalanine level, Mean [2]: 1.34E-13 | N-arachidonoyl proline level, Mean [2]: BDL | N-arachidonoyl serine level, Mean [2]: BDL | N-arachidonoyl taurine level, Mean [2]: 1.91E-11 | N-arachidonoyl tryptophan level, Mean [2]: BDL | N-docosahexaenoyl ethanolamine level, Mean [2]: 1.18E-11 | N-docosahexaenoyl methionine level, Mean [2]: BDL | N-docosahexaenoyl proline level, Mean [2]: BDL | N-docosahexaenoyl tryptophan level, Mean [2]: BDL | N-docosahexaenoyl valine level, Mean [2]: BDL | N-linoleoyl GABA level, Mean [2]: BDL | N-linoleoyl ethanolamine level, Mean [2]: 6.58E-12 | N-linoleoyl methionine level, Mean [2]: BDL | N-linoleoyl proline level, Mean [2]: BDL | N-linoleoyl serine level, Mean [2]: 1.16E-10 | N-linoleoyl tryptophan level, Mean [2]: BDL | N-linoleoyl tyrosine level, Mean [2]: BDL | N-linoleoyl valine level, Mean [2]: BDL | N-nervonoyl valine level, Mean [2]: BDL | N-oleoyl alanine level, Mean [2]: 4.79E-12 | N-oleoyl dopamine level, Mean [2]: BDL | N-oleoyl ethanolamine level, Mean [2]: 7.29E-11 | N-oleoyl glycine level, Mean [2]: 2.66E-13 | N-oleoyl methionine level, Mean [2]: BDL | N-oleoyl phenylalanine level, Mean [2]: 5E-13 | N-oleoyl proline level, Mean [2]: BDL | N-oleoyl serine level, Mean [2]: 5.82E-10 | N-oleoyl tryptophan level, Mean [2]: BDL | N-palmitoyl GABA level, Mean [2]: 3.12E-11 | N-palmitoyl alanine level, Mean [2]: 2.7E-12 | N-palmitoyl ethanolamine level, Mean [2]: 2.56E-11 | N-palmitoyl glycine level, Mean [2]: 2.34E-12 | N-palmitoyl leucine level, Mean [2]: 1.88E-12 | N-palmitoyl methionine level, Mean [2]: BDL | N-palmitoyl phenylalanine level, Mean [2]: 3.42E-13 | N-palmitoyl proline level, Mean [2]: BDL | N-palmitoyl tryptophan level, Mean [2]: BDL | N-palmitoyl tyrosine level, Mean [2]: 1.11E-12 | N-palmitoyl valine level, Mean [2]: 1.56E-13 | N-stearoyl alanine level, Mean [2]: 2.77E-12 | N-stearoyl ethanolamine level, Mean [2]: 7.07E-12 | N-stearoyl glycine level, Mean [2]: 2.2E-12 | N-stearoyl leucine level, Mean [2]: 1.65E-12 | N-stearoyl methionine level, Mean [2]: BDL | N-stearoyl phenylalanine level, Mean [2]: 2.86E-13 | N-stearoyl proline level, Mean [2]: BDL | N-stearoyl serine level, Mean [2]: 4.88E-11 | N-stearoyl tryptophan level, Mean [2]: BDL | Oleic acid level, Mean [2]: 2.14E-10 | PGE2 level, Mean [2]: 2.25E-10 | PhosphoLEA level, Mean [2]: 5.73E-11
